Data reported in ChEMBL document CHEMBL5030570, “Factor XI Activation Inhibitors for Treating Thrombosis, Embolisms, Hypercoagulability, and Fibrotic Changes” (ACS Med Chem Lett, 2022).

Target: Coagulation factor XI (Homo sapiens, UniProt P03951)
Test: Inhibition of human coagulation factor 11 assessed as inhibition of factor 12a mediated activation using z-GPR-AFC measured after 60 mins by fluorescence assay

Coagulation factor XI, sequence (P03951 19-387 limits assumed): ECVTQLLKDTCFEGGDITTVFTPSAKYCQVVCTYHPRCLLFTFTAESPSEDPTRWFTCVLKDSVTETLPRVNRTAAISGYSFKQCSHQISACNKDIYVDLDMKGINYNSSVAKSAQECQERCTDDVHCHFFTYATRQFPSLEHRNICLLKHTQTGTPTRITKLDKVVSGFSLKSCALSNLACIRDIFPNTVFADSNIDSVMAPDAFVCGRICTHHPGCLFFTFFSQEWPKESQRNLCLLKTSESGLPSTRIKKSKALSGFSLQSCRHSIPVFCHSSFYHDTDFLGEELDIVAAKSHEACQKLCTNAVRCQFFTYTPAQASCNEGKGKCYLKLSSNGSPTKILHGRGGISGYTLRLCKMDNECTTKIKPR
Coagulation factor XI, sequence (P03951 388-625 limits assumed): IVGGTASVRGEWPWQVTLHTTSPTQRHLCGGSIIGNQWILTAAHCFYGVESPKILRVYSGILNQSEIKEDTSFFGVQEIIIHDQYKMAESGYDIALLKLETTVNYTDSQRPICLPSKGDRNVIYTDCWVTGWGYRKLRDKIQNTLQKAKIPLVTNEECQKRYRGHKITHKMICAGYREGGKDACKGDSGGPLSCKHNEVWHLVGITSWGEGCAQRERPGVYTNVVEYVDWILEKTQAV

Cc1cnn(C2CCN(C(=O)c3cc(C(=O)N4CCCCC4)c4cc(OCc5ncc(C(F)(F)F)cc5Cl)ncc4c3)CC2)c1
EC50: 3.8 nM
